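How tested: cells in 96-well plates exposed to compound for 48 hours at five concentrations. GI50 = concentration required for 50% inhibition of growth. At the TGI there is no net growth.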
How the values were obtained:
Experiment in all cases: DTP human tumour cell line panel, 48 h
HOP-62 NSCLC = system: HOP-62 NSCLC
HT29 colon = system: HT29 colon
M14 melanoma = system: M14 melanoma
NCI-H23 lung = system: NCI-H23 lung
NCI-H522 lung = system: NCI-H522 lung
OVCAR-4 ovarian = system: OVCAR-4 ovarian
OVCAR-5 ovarian = system: OVCAR-5 ovarian
SF-268 CNS = system: SF-268 CNS
SW-620 colon = system: SW-620 colon
UACC-62 melanoma = system: UACC-62 melanoma

CC1(C)OC2C(CO[Si](C)(C)C(C)(C)C)OC(n3c(I)c(C#C[Si](C)(C)C)c(=O)[nH]c3=O)C2O1 (stereo not given)
GI50 (HOP-62 NSCLC): > 100 µM
TGI (HOP-62 NSCLC): > 100 µM
GI50 (HT29 colon): 5.01 µM
TGI (HT29 colon): 23.7 µM
GI50 (M14 melanoma): 13.4 µM
TGI (M14 melanoma): 28.1 µM
GI50 (NCI-H23 lung): 18.2 µM
TGI (NCI-H23 lung): 50.9 µM
GI50 (NCI-H522 lung): 1.38 µM
TGI (NCI-H522 lung): 2.74 µM
GI50 (OVCAR-4 ovarian): 16.1 µM
TGI (OVCAR-4 ovarian): 31.8 µM
GI50 (OVCAR-5 ovarian): 18.7 µM
TGI (OVCAR-5 ovarian): 42.8 µM
GI50 (SF-268 CNS): 11.4 µM
TGI (SF-268 CNS): 28.2 µM
GI50 (SW-620 colon): 1.69 µM
TGI (SW-620 colon): 3.21 µM
GI50 (UACC-62 melanoma): 21.5 µM
TGI (UACC-62 melanoma): 50.5 µM

COC(=O)C1CCCC2(C1)OCCO2 (stereo not given)
TGI (HOP-62 NSCLC): > 100 µM
TGI (HT29 colon): > 100 µM
TGI (M14 melanoma): > 100 µM
TGI (NCI-H23 lung): > 100 µM
TGI (NCI-H522 lung): > 100 µM
TGI (OVCAR-4 ovarian): > 100 µM
TGI (OVCAR-5 ovarian): > 100 µM
TGI (SF-268 CNS): > 100 µM
TGI (SW-620 colon): > 100 µM
TGI (UACC-62 melanoma): > 100 µM

CCOc1ccc(/C=C2\N=C(c3ccc([N+](=O)[O-])cc3)OC2=O)cc1
TGI (HOP-62 NSCLC): > 100 µM
TGI (HT29 colon): > 100 µM
TGI (M14 melanoma): > 100 µM
TGI (NCI-H23 lung): > 100 µM
TGI (NCI-H522 lung): > 100 µM
TGI (OVCAR-4 ovarian): > 100 µM
TGI (OVCAR-5 ovarian): > 100 µM
TGI (SF-268 CNS): > 100 µM
TGI (SW-620 colon): > 100 µM
TGI (UACC-62 melanoma): > 100 µM

CC(C)(/C=C(\C#N)C(=O)N1CCC[C@@H](n2nc(-c3ccc(Oc4ccccc4)cc3F)c3c(N)ncnc32)C1)N1CCN(C2COC2)CC1
GI50 (HOP-62 NSCLC): 10.1 µM
TGI (HOP-62 NSCLC): 25.7 µM
GI50 (HT29 colon): 4.69 µM
TGI (HT29 colon): 23.6 µM
GI50 (M14 melanoma): 4.82 µM
TGI (M14 melanoma): 18.8 µM
GI50 (NCI-H23 lung): 11 µM
TGI (NCI-H23 lung): 30.9 µM
GI50 (NCI-H522 lung): 2.8 µM
TGI (NCI-H522 lung): 17.7 µM
GI50 (OVCAR-4 ovarian): 5.69 µM
TGI (OVCAR-4 ovarian): 20.4 µM
GI50 (OVCAR-5 ovarian): 11.3 µM
TGI (OVCAR-5 ovarian): 24.1 µM
GI50 (SF-268 CNS): 5.37 µM
TGI (SF-268 CNS): 21.8 µM
GI50 (SW-620 colon): 12.4 µM
TGI (SW-620 colon): 31.3 µM
GI50 (UACC-62 melanoma): 3.04 µM
TGI (UACC-62 melanoma): 14.3 µM

CCN(CC)CCNc1nc(N)c(C#N)c(C#N)c1C#N
TGI (HOP-62 NSCLC): > 10 µM
TGI (HT29 colon): > 10 µM
TGI (M14 melanoma): > 10 µM
TGI (NCI-H23 lung): > 10 µM
TGI (NCI-H522 lung): > 10 µM
TGI (OVCAR-4 ovarian): > 10 µM
TGI (OVCAR-5 ovarian): > 10 µM
TGI (SF-268 CNS): > 10 µM
TGI (SW-620 colon): > 10 µM
TGI (UACC-62 melanoma): > 10 µM

CC(C)(C)c1cc(C(P(=O)(O)O)P(=O)(O)O)cc(C(C)(C)C)c1O
TGI (HOP-62 NSCLC): > 100 µM
TGI (HT29 colon): > 100 µM
TGI (M14 melanoma): > 100 µM
TGI (NCI-H23 lung): > 100 µM
TGI (NCI-H522 lung): > 100 µM
TGI (OVCAR-4 ovarian): > 100 µM
TGI (OVCAR-5 ovarian): > 100 µM
TGI (SF-268 CNS): > 100 µM
TGI (SW-620 colon): > 100 µM
TGI (UACC-62 melanoma): > 100 µM

N=c1c2c(-c3ccccc3)c(-c3ccccc3)n(Cc3ccccc3)c2ncn1C1CCC(O)CC1 (stereo not given)
GI50 (HOP-62 NSCLC): 0.261 µM
TGI (HOP-62 NSCLC): 14.8 µM
GI50 (HT29 colon): 0.0772 µM
TGI (HT29 colon): 2.49 µM
GI50 (M14 melanoma): 0.894 µM
TGI (M14 melanoma): 2.38 µM
GI50 (NCI-H23 lung): 0.836 µM
TGI (NCI-H23 lung): 22 µM
GI50 (NCI-H522 lung): 0.576 µM
TGI (NCI-H522 lung): 5.61 µM
GI50 (OVCAR-4 ovarian): 1.43 µM
TGI (OVCAR-4 ovarian): 13.1 µM
GI50 (OVCAR-5 ovarian): 5.84 µM
TGI (OVCAR-5 ovarian): 22.4 µM
GI50 (SF-268 CNS): 0.118 µM
TGI (SF-268 CNS): 15 µM
GI50 (SW-620 colon): 0.0497 µM
TGI (SW-620 colon): 12.9 µM
GI50 (UACC-62 melanoma): 0.534 µM
TGI (UACC-62 melanoma): 7.06 µM
